The text below walks through data of PubChem BioAssay (NCI).

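Where inhibition never reached the appropriate level, the endpoint shown equals the highest concentration tested. Otherwise, values were interpolated linearly from a five-concentration, 48-hour dose response in 96-well plates. TGI denotes the concentration required for complete inhibition of growth.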 Some results are limits rather than exact numbers.

Common to all, as to assay: NCI-60 cell line screen, 48 h
Test [1] deals with DLD-1 colon.
The subject of test [2] is DMS 114 small cell lung.
For test [3], the system named is DMS 273 small cell lung.
The subject of test [4] is HOP-18 NSCLC.
The test system of test [5] is LXFL 529 NSCLC.
For test [6], the system named is M19-MEL melanoma.
In test [7] the test system is RXF-631 renal.
Test [8] deals with SNB-78 CNS.
Test [9] deals with XF 498 CNS.

For `COC(=O)NN1C(C)=C(C(=O)OC)C2(C#N)C(C(=O)OC)=C(C)N(NC(=O)OC)C12N` (configuration not stated), the TGI in [1], in [2], in test [3], in test [4], in test [5] and in test [6] was more than 100 µM each time. Moreover, the TGI in test [7], in test [8] and in [9] was more than 100 µM in each case.

With `Cc1cc(Cl)ccc1NC(=O)CCCC(=O)C1CCC/C1=N\NC(=O)CC#N` (configuration not stated), the TGI in test [1] was more than 100 µM; in test [2], more than 100 µM; in test [3], more than 100 µM; in test [4] it was 97.9 µM; in [5], more than 100 µM; in [6], more than 100 µM. The TGI in test [7], in test [8] and in test [9] was more than 100 µM each time.

As to `C/C=C(/CCC1NCCC2c3ccccc3NC12)[Si](C)(C)C` (configuration not stated), the TGI in [1] amounted to 17.1 µM; in [2], 14.3 µM; in test [3], 21.7 µM; in test [4] it was 26.7 µM; in [5], 13 µM; in test [6] it was 24.8 µM. Besides, the results for the TGI in [7], in test [8] and in [9] were 23.4 µM, 26.2 µM and 12.1 µM, respectively.
